According to US4396613A, “23-Ester derivatives of DMT and method of using same” (Eli Lilly and Company, priority 1981, dated 1983):
Converted amounts (≈) assume the structure as drawn.

Columns and labels:
[1] = test system: Staphylococcus aureus V41; assay: standard agar-dilution assay (MIC); format: cell-based; conditions: Staphylococcus aureus V41, penicillin-resistant strain, unit assumed
Procedure: (§1) The MIC's in Table II were determined by standard agar-dilution assays. The MIC's in Table III were obtained using a conventional broth-dilution microtiter test.
^b Penicillinresistant strain

[2] = test system: Staphylococcus aureus X400; assay: standard agar-dilution assay (MIC); format: cell-based; conditions: Staphylococcus aureus X400, methicillin-resistant strain, unit assumed
Procedure: as §1
^c Methicillinresistant-strain

[3] = test system: Haemophilus influenzae Holt; assay: standard agar-dilution assay (MIC); format: cell-based; conditions: ampicillin-sensitive strain, unit assumed
Procedure: as §1

[4] = test system: Haemophilus influenzae R252; assay: standard agar-dilution assay (MIC); format: cell-based; conditions: Haemophilus influenzae R252, ampicillin-resistant strain, unit assumed
Procedure: as §1

[5] = test system: Staphylococcus aureus S13E; assay: standard agar-dilution assay (MIC); format: cell-based; conditions: unit assumed
Procedure: as §1

[6] = test system: Staphylococcus aureus X1.1; assay: standard agar-dilution assay (MIC); format: cell-based; conditions: unit assumed
Procedure: as §1

[7] = test system: Staphylococcus epidermidis EPI1; assay: standard agar-dilution assay (MIC); format: cell-based; conditions: unit assumed
Procedure: as §1

[8] = test system: Staphylococcus epidermidis EPI2; assay: standard agar-dilution assay (MIC); format: cell-based; conditions: unit assumed
Procedure: as §1

Streptococcus Group 9960 = assay: standard agar-dilution assay (MIC); format: cell-based; conditions: unit assumed
Procedure: as §1

[9] = test system: Streptococcus Group D X66; assay: standard agar-dilution assay (MIC); format: cell-based; conditions: unit assumed
Procedure: as §1

[10] = test system: Streptococcus pyogenes C203; assay: standard agar-dilution assay (MIC); format: cell-based; conditions: unit assumed
Procedure: as §1

[11] = test system: Streptococcus pneumoniae Park I; format: cell-based; conditions: agar dilution, unit assumed
Procedure: as §1

Mycoplasma gallisepticum = assay: conventional broth-dilution microtiter test (MIC); format: cell-based; conditions: unit assumed
Procedure: as §1

Mycoplasma hyorhinis = assay: conventional broth-dilution microtiter test (MIC); format: cell-based; conditions: unit assumed
Procedure: as §1

Mycoplasma synoviae = assay: conventional broth-dilution microtiter test (MIC); format: cell-based; conditions: unit assumed
Procedure: as §1

[12] = test system: Pasteurella multocida 17E; assay: conventional broth-dilution microtiter test (MIC); format: cell-based; conditions: bovine isolate, unit assumed
Procedure: as §1

[13] = test system: Pasteurella multocida 60A; assay: conventional broth-dilution microtiter test (MIC); format: cell-based; conditions: avian isolate, unit assumed
Procedure: as §1

Staphylococcus aureus = assay: conventional broth-dilution microtiter test (MIC); format: cell-based; conditions: unit assumed
Procedure: as §1

Streptococcus sp. 80 = assay: conventional broth-dilution microtiter test (MIC); format: cell-based; conditions: unit assumed
Procedure: as §1

[14] = test system: Streptococcus pyogenes C203; assay: experimental infection in mice (ED50); format: in vivo; conditions: doses given 1 and 4 hours postinfection
Procedure: The 23-ester derivatives of DMT of this invention have shown in vivo antimicrobial activity against experimental bacterial infections caused by gram-positive bacteria. When two doses of test compound were admininstered to mice with experimental infections, the activity observed was measured as an ED50 value [effective dose in mg/kg to protect 50% of the test animals: see Warren Wick, et al., J. Bacteriol. 81, 233-235 (1961)].
^a mg/kg × 2; doses given 1 and 4 hours postinfection

Structure (SMILES): CCC1OC(=O)CC(O)C(C)C(OC2OC(C)C(OC3CC(C)(O)C(O)C(C)O3)C(N(C)C)C2OC(C)=O)C(CC=O)CC(C)C(=O)C=CC(C)=CC1COC(=O)Cc1cc(OC)ccc1OC (stereo not drawn) [Compound 20]
- MIC [1]: 0.5 µg/mL (≈ 0.52 µM)
- MIC [2]: 0.5 µg/mL (≈ 0.52 µM)
- MIC [3]: 32 µg/mL (≈ 33.3 µM)
- MIC [4]: 16 µg/mL (≈ 16.6 µM)
- MIC [5]: 0.5 µg/mL (≈ 0.52 µM)
- MIC [6]: 0.5 µg/mL (≈ 0.52 µM)
- MIC [7]: 0.5 µg/mL (≈ 0.52 µM)
- MIC [8]: 0.5 µg/mL (≈ 0.52 µM)
- MIC (Streptococcus Group 9960): 2 µg/mL (≈ 2.08 µM)
- MIC [9]: 0.5 µg/mL (≈ 0.52 µM)
- MIC [10]: 0.25 µg/mL (≈ 0.26 µM)
- MIC [11]: 0.06 µg/mL (≈ 0.0624 µM)
- MIC (Mycoplasma gallisepticum): 0.195 µg/mL (≈ 0.203 µM)
- MIC (Mycoplasma hyorhinis): 1.56 µg/mL (≈ 1.62 µM)
- MIC (Mycoplasma synoviae): 0.39 µg/mL (≈ 0.405 µM)
- MIC [12]: 12.5 µg/mL (≈ 13 µM)
- MIC [13]: 25 µg/mL (≈ 26 µM)
- MIC (Staphylococcus aureus): 0.78 µg/mL (≈ 0.811 µM)
- MIC (Streptococcus sp. 80): 0.195 µg/mL (≈ 0.203 µM)

Structure (SMILES): CCC1OC(=O)CC(O)C(C)C(OC2OC(C)C(OC3CC(C)(O)C(O)C(C)O3)C(N(C)C)C2O)C(CC=O)CC(C)C(=O)C=CC(C)=CC1COC(=O)NCCCCCCCCN (stereo not drawn) [Compound 27]
- MIC [1]: 2 µg/mL (≈ 2.19 µM)
- MIC [2]: 8 µg/mL (≈ 8.77 µM)
- MIC [3]: 32 µg/mL (≈ 35.1 µM)
- MIC [4]: 32 µg/mL (≈ 35.1 µM)
- MIC [5]: 4 µg/mL (≈ 4.39 µM)
- MIC [6]: 2 µg/mL (≈ 2.19 µM)
- MIC [7]: 2 µg/mL (≈ 2.19 µM)
- MIC [8]: 4 µg/mL (≈ 4.39 µM)
- MIC (Streptococcus Group 9960): 4 µg/mL (≈ 4.39 µM)
- MIC [9]: 4 µg/mL (≈ 4.39 µM)
- MIC [10]: 1 µg/mL (≈ 1.1 µM)
- MIC [11]: 0.25 µg/mL (≈ 0.274 µM)
- MIC (Mycoplasma gallisepticum): 0.78 µg/mL (≈ 0.855 µM)
- MIC (Mycoplasma hyorhinis): 3.12 µg/mL (≈ 3.42 µM)
- MIC (Mycoplasma synoviae): 3.12 µg/mL (≈ 3.42 µM)
- MIC [12]: 25 µg/mL (≈ 27.4 µM)
- MIC [13]: 50 µg/mL (≈ 54.8 µM)
- MIC (Staphylococcus aureus): 6.25 µg/mL (≈ 6.85 µM)
- MIC (Streptococcus sp. 80): 0.78 µg/mL (≈ 0.855 µM)

Structure (SMILES): CCC1OC(=O)CC(O)C(C)C(OC2OC(C)C(OC3CC(C)(O)C(O)C(C)O3)C(N(C)C)C2O)C(CC=O)CC(C)C(=O)C=CC(C)=CC1COC(=O)OC (stereo not drawn) [Compound 25]
- MIC [1]: 0.5 µg/mL (≈ 0.625 µM)
- MIC [2]: 0.5 µg/mL (≈ 0.625 µM)
- MIC [3]: 8 µg/mL (≈ 10 µM)
- MIC [4]: 8 µg/mL (≈ 10 µM)
- MIC [5]: 0.25 µg/mL (≈ 0.313 µM)
- MIC [6]: 0.25 µg/mL (≈ 0.313 µM)
- MIC [7]: 0.5 µg/mL (≈ 0.625 µM)
- MIC (Streptococcus Group 9960): 0.5 µg/mL (≈ 0.625 µM)
- MIC [9]: 0.5 µg/mL (≈ 0.625 µM)
- MIC [10]: 0.25 µg/mL (≈ 0.313 µM)
- MIC [11]: 0.06 µg/mL (≈ 0.075 µM)
- MIC (Mycoplasma gallisepticum): 0.097 µg/mL (≈ 0.121 µM)
- MIC (Mycoplasma hyorhinis): 1.56 µg/mL (≈ 1.95 µM)
- MIC (Mycoplasma synoviae): 0.097 µg/mL (≈ 0.121 µM)
- MIC [12]: 6.25 µg/mL (≈ 7.81 µM)
- MIC [13]: 12.5 µg/mL (≈ 15.6 µM)
- MIC (Staphylococcus aureus): 1.56 µg/mL (≈ 1.95 µM)
- MIC (Streptococcus sp. 80): 0.78 µg/mL (≈ 0.975 µM)
- ED50 ([14]; C203, oral): > 100 mg/kg
- ED50 ([14]; C203, sc, subcutaneous): 7.6 mg/kg

Structure (SMILES): CCC1OC(=O)CC(O)C(C)C(OC2OC(C)C(OC3CC(C)(O)C(O)C(C)O3)C(N(C)C)C2OC(C)=O)C(CC=O)CC(C)C(=O)C=CC(C)=CC1COC(=O)CCCCc1ccccc1 (stereo not drawn) [Compound 18]
- MIC [1]: 2 µg/mL (≈ 2.12 µM)
- MIC [2]: 2 µg/mL (≈ 2.12 µM)
- MIC [3]: > 128 µg/mL
- MIC [4]: > 128 µg/mL
- MIC [5]: 1 µg/mL (≈ 1.06 µM)
- MIC [6]: 1 µg/mL (≈ 1.06 µM)
- MIC [7]: 1 µg/mL (≈ 1.06 µM)
- MIC [8]: 2 µg/mL (≈ 2.12 µM)
- MIC (Streptococcus Group 9960): 1 µg/mL (≈ 1.06 µM)
- MIC [9]: 2 µg/mL (≈ 2.12 µM)
- MIC [10]: 0.5 µg/mL (≈ 0.53 µM)
- MIC [11]: 0.125 µg/mL (≈ 0.132 µM)
- MIC (Mycoplasma gallisepticum): < 0.05 µg/mL
- MIC (Mycoplasma hyorhinis): 12.5 µg/mL (≈ 13.2 µM)
- MIC (Mycoplasma synoviae): 6.25 µg/mL (≈ 6.62 µM)
- MIC [12]: 50 µg/mL (≈ 53 µM)
- MIC [13]: > 50 µg/mL
- MIC (Staphylococcus aureus): 1.56 µg/mL (≈ 1.65 µM)
- MIC (Streptococcus sp. 80): 0.78 µg/mL (≈ 0.826 µM)

Structure (SMILES): CCC1OC(=O)CC(O)C(C)C(OC2OC(C)C(OC3CC(C)(O)C(O)C(C)O3)C(N(C)C)C2OC(=O)Cc2ccccc2)C(CC=O)CC(C)C(=O)C=CC(C)=CC1COC(=O)Cc1ccccc1 (stereo not drawn) [Compound 17]
- MIC [1]: 1 µg/mL (≈ 1.02 µM)
- MIC [2]: 2 µg/mL (≈ 2.04 µM)
- MIC [3]: > 128 µg/mL
- MIC [4]: > 128 µg/mL
- MIC [5]: 1 µg/mL (≈ 1.02 µM)
- MIC [6]: 1 µg/mL (≈ 1.02 µM)
- MIC [7]: 1 µg/mL (≈ 1.02 µM)
- MIC [8]: 1 µg/mL (≈ 1.02 µM)
- MIC (Streptococcus Group 9960): 1 µg/mL (≈ 1.02 µM)
- MIC [9]: 1 µg/mL (≈ 1.02 µM)
- MIC [10]: 0.5 µg/mL (≈ 0.511 µM)
- MIC [11]: 0.125 µg/mL (≈ 0.128 µM)
- MIC (Mycoplasma gallisepticum): 0.78 µg/mL (≈ 0.797 µM)
- MIC (Mycoplasma hyorhinis): 6.25 µg/mL (≈ 6.39 µM)
- MIC (Mycoplasma synoviae): 1.56 µg/mL (≈ 1.59 µM)
- MIC [12]: 6.25 µg/mL (≈ 6.39 µM)
- MIC [13]: 25 µg/mL (≈ 25.6 µM)
- MIC (Staphylococcus aureus): 0.78 µg/mL (≈ 0.797 µM)
- MIC (Streptococcus sp. 80): 0.78 µg/mL (≈ 0.797 µM)
